In ChEMBL document CHEMBL5727906, “Adenosine A3 receptor modulators” (2020):

Assays:
Adenosine receptor A3 = target: T1, Adenosine receptor A3 (Homo sapiens, UniProt P0DMS8); experiment: Competition Radioligand Binding Assay: A3 Adenosine Receptor:Competitive assays were carried out by incubation of membranes from human A3 receptors transfected to CHO cells, [3H]-NECA, buffer (20 mM HEPES (pH 7.4), 100 mM NaCl, 10 mM MgCl2, 2 units/ml adenosine deaminase), and unlabelled ligand in a total volume of 0.2 ml for 60 min at 25° C. R-PIA was used to determine nonspecific binding. It was filtered over Schleicher & Schuell GF/52 (presoaked with 0.5% polyethyleneimine) in a Brandel cell harvester. The unbound radioligand was removed with 3×250 μl of 20 mM HEPES (pH 7.4), 100 mM NaCl, 10 mM MgCl2.
T1 sequence (P0DMS8 whole entry): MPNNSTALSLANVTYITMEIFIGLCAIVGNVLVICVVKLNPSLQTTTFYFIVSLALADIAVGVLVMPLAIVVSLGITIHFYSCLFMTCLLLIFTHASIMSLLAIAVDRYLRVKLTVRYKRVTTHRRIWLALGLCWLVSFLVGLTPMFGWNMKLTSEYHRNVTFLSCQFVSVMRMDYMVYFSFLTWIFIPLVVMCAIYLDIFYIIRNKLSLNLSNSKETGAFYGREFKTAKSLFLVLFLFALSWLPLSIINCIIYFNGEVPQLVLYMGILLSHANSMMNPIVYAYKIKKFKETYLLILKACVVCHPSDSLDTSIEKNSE

Adenosine receptor A2a = Adenosine receptor A2a (Homo sapiens, UniProt P29274); experiment: Competition Radioligand Binding Assay: A2A Adenosine Receptor: Competitive assays were carried out by incubation of membranes from human A2A receptors transfected to HeLa cells, [3H]-ZM241385, buffer (Tris-HCl 50 mM (pH=7.4), 10 mM MgCl2, EDTA 1 mM and 2 units/ml adenosine deaminase), and unlabelled ligand in a total volume of 0.2 ml for 60 min at 25° C. NECA was used to determine nonspecific binding. It was filtered over Schleicher & Schuell GF/52 (presoaked with 0.5% polyethyleneimine) in a Brandel cell harvester. The unbound radioligand was removed with 3×250 μl of 20 mM Tris-HCl 50 mM (pH=7.4), 10 mM MgCl2, EDTA 1 mM.
Adenosine receptor A2b = target: T2, Adenosine receptor A2b (Homo sapiens, UniProt P29275); experiment: Competition Radioligand Binding Assay: A2B Adenosine Receptor: The binding assay for adenosine A2B receptor subtype was carried out on human recombinant source (HEK-293 cells) and [3H]DPCPX as radioligand.
T2 sequence (P29275 whole entry): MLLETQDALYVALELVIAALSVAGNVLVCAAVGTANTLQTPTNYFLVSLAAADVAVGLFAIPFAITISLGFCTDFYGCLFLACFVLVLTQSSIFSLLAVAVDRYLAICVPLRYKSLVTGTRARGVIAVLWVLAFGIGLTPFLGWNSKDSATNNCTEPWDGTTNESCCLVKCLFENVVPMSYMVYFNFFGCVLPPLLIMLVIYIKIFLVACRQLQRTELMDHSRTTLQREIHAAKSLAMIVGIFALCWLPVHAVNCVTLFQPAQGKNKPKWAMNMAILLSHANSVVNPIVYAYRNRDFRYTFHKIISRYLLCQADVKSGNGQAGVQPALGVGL

Adenosine receptor A1 = target: T3, Adenosine receptor A1 (Homo sapiens, UniProt P30542); experiment: Competition Radioligand Binding Assay: Adenosine A1 Receptor: Competition assays were carried out by incubation of human recombinant membranes of adenosine receptors from hA1 receptors transfected to CHO cells, [3H] DPCPX as radioligand, buffer (HEPES 20 mM (pH=7.4), 10 mM MgCl2, 100 mM NaCl, 2 U/mL of deaminase adenosine and non-labelled ligand in a total volume of 0.2 mL for 90 min at 25° C. R-PIA was used to determinate non-specific binding. Filter over Schleicher & Schuell GF/52 (pre-soaked 0.5% polyethylenimine) in a Brandel cell harvester. Unbound radioligand was removed with HEPES 30 mM (3×250 μl), NaCl (100 mM) and MgCl2 (10 mM).
T3 sequence (P30542 whole entry): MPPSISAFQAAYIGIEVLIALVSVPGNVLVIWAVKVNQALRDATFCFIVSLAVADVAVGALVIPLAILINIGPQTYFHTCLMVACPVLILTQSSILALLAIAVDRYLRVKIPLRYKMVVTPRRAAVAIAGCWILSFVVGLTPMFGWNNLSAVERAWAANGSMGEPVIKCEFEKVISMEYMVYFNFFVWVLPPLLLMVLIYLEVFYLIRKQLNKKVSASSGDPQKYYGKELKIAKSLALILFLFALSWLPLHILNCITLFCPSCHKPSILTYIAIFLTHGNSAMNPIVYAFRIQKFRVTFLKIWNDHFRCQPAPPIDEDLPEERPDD

Chain of Adenosine receptor A2a (P29274 whole entry): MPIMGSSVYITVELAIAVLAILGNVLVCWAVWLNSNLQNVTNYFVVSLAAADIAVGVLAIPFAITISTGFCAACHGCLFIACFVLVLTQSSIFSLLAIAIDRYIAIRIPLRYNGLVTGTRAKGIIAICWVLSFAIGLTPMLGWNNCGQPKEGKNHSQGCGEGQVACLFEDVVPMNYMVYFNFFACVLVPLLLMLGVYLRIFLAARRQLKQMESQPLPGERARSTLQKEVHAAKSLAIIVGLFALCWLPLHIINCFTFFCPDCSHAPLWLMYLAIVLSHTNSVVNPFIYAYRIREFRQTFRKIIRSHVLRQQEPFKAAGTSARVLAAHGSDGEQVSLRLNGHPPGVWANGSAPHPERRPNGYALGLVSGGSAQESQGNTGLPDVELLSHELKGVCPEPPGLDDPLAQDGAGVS

- Ki (Adenosine receptor A3): 0.0476 µM
- Ki (Adenosine receptor A2a): > 1 µM
- Ki (Adenosine receptor A2b): > 1 µM
- Ki (Adenosine receptor A1): > 1 µM
SMILES: COc1ccc(-c2nc(NC(=O)c3ccc(N4CCC(C(=O)O)CC4)nc3)sc2C#N)cc1
